Results published in PubChem BioAssay AID180 (DTP/NCI, 2004).
“And” between values parts separate entries of the source, which are not always exact repeats. Equal values may be shown once.

Test system: BDF1 mice, Adenocarcinoma 755 s.c., tumor weight T/C
Assay: NCI In Vivo Anticancer Drug Screen. Data for tumor model Adenocarcinoma 755 (subcutaneous) in B6D2F1 (BDF1) mice
Conditions: endpoint: mean tumor weight, higher = larger tumour
Description: The antitumor activity of compounds was measured in mice bearing transplantable tumors. Survival or tumor size were measured and the results are expressed as the measurement made in the treated group (T) divided by the measurement made in the vehicle treated control group (C). The tumor model used in this assay is Adenocarcinoma 755 (subcutaneous) in B6D2F1 (BDF1) mice

[1] = dose: 5.0 mg/kg/injection, schedule: Q01DX011 (ip), vehicle: saline
[2] = dose: 10.0 mg/kg/injection, schedule: Q01DX011 (ip), vehicle: saline
[3] = dose: 20.0 mg/kg/injection, schedule: Q01DX011 (ip), vehicle: saline
[4] = dose: 40.0 mg/kg/injection, schedule: Q01DX011 (ip), vehicle: saline
[5] = dose: 50.0 mg/kg/injection, schedule: Q01DX011 (ip), vehicle: saline

CCOc1ccccc1C(=O)Nc1ccc(Br)cc1
T/C (dose: 12.0 mg/kg/injection, schedule: Q01DX011 (ip), vehicle: carboxymethylcellulose (CMC)): 66 % of control | T/C (dose: 25.0 mg/kg/injection, schedule: Q01DX011 (ip), vehicle: carboxymethylcellulose (CMC)): 45 % of control | T/C (dose: 50.0 mg/kg/injection, schedule: Q01DX011 (ip), vehicle: carboxymethylcellulose (CMC)): 40 % of control | T/C (dose: 100.0 mg/kg/injection, schedule: Q01DX011 (ip), vehicle: carboxymethylcellulose (CMC)): 28 % of control and 50 % of control | T/C (dose: 200.0 mg/kg/injection, schedule: Q01DX011 (ip), vehicle: carboxymethylcellulose (CMC)): 17 % of control and 23 % of control | T/C (dose: 400.0 mg/kg/injection, schedule: Q01DX011 (ip), vehicle: carboxymethylcellulose (CMC)): 7 % of control and 32 % of control | T/C (dose: 400.0 mg/kg/injection, schedule: Q01DX011 (ip), vehicle: saline): 32 % of control | T/C (dose: 700.0 mg/kg/injection, schedule: Q01DX011 (ip), vehicle: carboxymethylcellulose (CMC)): 22 % of control | T/C (dose: 800.0 mg/kg/injection, schedule: Q01DX011 (ip), vehicle: carboxymethylcellulose (CMC)): 42 % of control | T/C (dose: 800.0 mg/kg/injection, schedule: Q01DX011 (ip), vehicle: saline): 21 % of control

CCOC1=C(N2CC2)C(=O)C(OCC)=C(N2CC2)C1=O
T/C (dose: 0.08 mg/kg/injection, schedule: Q01DX011 (ip), vehicle: carboxymethylcellulose (CMC)): 36 % of control | T/C (dose: 0.12 mg/kg/injection, schedule: Q01DX011 (ip), vehicle: carboxymethylcellulose (CMC)): 94 % of control | T/C (dose: 0.16 mg/kg/injection, schedule: Q01DX011 (ip), vehicle: carboxymethylcellulose (CMC)): 46 % of control | T/C (dose: 0.25 mg/kg/injection, schedule: Q01DX011 (ip), vehicle: carboxymethylcellulose (CMC)): 55 % of control | T/C (dose: 0.32 mg/kg/injection, schedule: Q01DX011 (ip), vehicle: carboxymethylcellulose (CMC)): 48 % of control | T/C (dose: 0.5 mg/kg/injection, schedule: Q01DX011 (ip), vehicle: carboxymethylcellulose (CMC)): 71 % of control | T/C (dose: 0.63 mg/kg/injection, schedule: Q01DX011 (ip), vehicle: carboxymethylcellulose (CMC)): 35 % of control | T/C (dose: 1.0 mg/kg/injection, schedule: Q01DX011 (ip), vehicle: carboxymethylcellulose (CMC)): 44 % of control | T/C (dose: 2.5 mg/kg/injection, schedule: Q01DX011 (ip), vehicle: methylcellulose (MC)): 21 % of control | T/C (dose: 10.0 micrograms/kg/injection, schedule: Q01DX011 (ip), vehicle: carboxymethylcellulose (CMC)): 111 % of control | T/C (dose: 40.0 micrograms/kg/injection, schedule: Q01DX011 (ip), vehicle: carboxymethylcellulose (CMC)): 98 % of control | T/C (dose: 80.0 micrograms/kg/injection, schedule: Q01DX011 (ip), vehicle: carboxymethylcellulose (CMC)): 115 % of control

C/C(=N\NC(=O)c1ccncc1)c1ccc(F)cc1
T/C (dose: 30.0 mg/kg/injection, schedule: Q01DX011 (ip), vehicle: methylcellulose (MC)): 95 % of control

CCCCn1cnc2c(SC)ncnc21
T/C [1]: 89 % of control | T/C (dose: 7.5 mg/kg/injection, schedule: Q01DX011 (ip), vehicle: saline): 119 % of control | T/C [2]: 65 % of control | T/C [3]: 20 % of control | T/C (dose: 30.0 mg/kg/injection, schedule: Q01DX011 (ip), vehicle: saline): 26 % of control | T/C [4]: 14 % of control | T/C [5]: 10 % of control | T/C (dose: 53.0 mg/kg/injection, schedule: Q01DX011 (ip), vehicle: saline): 5 % of control | T/C (dose: 84.0 mg/kg/injection, schedule: Q01DX011 (ip), vehicle: saline): 5 % of control | T/C (dose: 125.0 mg/kg/injection, schedule: Q01DX011 (ip), vehicle: saline): 4 % of control | T/C (dose: 187.0 mg/kg/injection, schedule: Q01DX011 (ip), vehicle: saline): 1 % of control

Nc1nc(SCc2cccc([N+](=O)[O-])c2)c2[nH]cnc2n1
T/C (dose: 37.5 mg/kg/injection, schedule: Q01DX011 (ip), vehicle: methylcellulose (MC)): 41 % of control | T/C (dose: 75.0 mg/kg/injection, schedule: Q01DX011 (ip), vehicle: methylcellulose (MC)): 8 % of control | T/C (dose: 150.0 mg/kg/injection, schedule: Q01DX011 (ip), vehicle: methylcellulose (MC)): 3 % of control | T/C (dose: 300.0 mg/kg/injection, schedule: Q01DX011 (ip), vehicle: methylcellulose (MC)): 1 % of control

Nc1ncnc2nc(/N=N/SCCC(=O)O)[nH]c12
T/C (dose: 37.5 mg/kg/injection, schedule: Q01DX011 (ip), vehicle: saline): 205 % of control | T/C (dose: 75.0 mg/kg/injection, schedule: Q01DX011 (ip), vehicle: saline): 123 % of control | T/C (dose: 150.0 mg/kg/injection, schedule: Q01DX011 (ip), vehicle: saline): 56 % of control

c1cncc(CSc2ncnc3nc[nH]c23)c1
T/C (dose: 0.78 mg/kg/injection, schedule: Q01DX011 (ip), vehicle: methylcellulose (MC)): 79 % of control | T/C (dose: 1.55 mg/kg/injection, schedule: Q01DX011 (ip), vehicle: methylcellulose (MC)): 40 % of control | T/C (dose: 3.1 mg/kg/injection, schedule: Q01DX011 (ip), vehicle: methylcellulose (MC)): 61 % of control | T/C (dose: 6.25 mg/kg/injection, schedule: Q01DX011 (ip), vehicle: methylcellulose (MC)): 8 % of control and 20 % of control | T/C (dose: 12.5 mg/kg/injection, schedule: Q01DX011 (ip), vehicle: methylcellulose (MC)): 4 % of control | T/C (dose: 25.0 mg/kg/injection, schedule: Q01DX011 (ip), vehicle: methylcellulose (MC)): 2 % of control | T/C (dose: 50.0 mg/kg/injection, schedule: Q01DX011 (ip), vehicle: methylcellulose (MC)): 2 % of control

O=C(Nc1ccc([N+](=O)[O-])cc1)Nc1ccc([N+](=O)[O-])cc1 (tested in a mixture with another compound)
T/C (dose: 175.0 mg/kg/injection, schedule: Q01DX011 (ip), vehicle: methylcellulose (MC)): 57 % of control and 72 % of control | T/C (dose: 500.0 mg/kg/injection, schedule: Q01DX011 (ip), vehicle: methylcellulose (MC)): 27 % of control and 45 % of control

C=CCSc1ncnc2c1ncn2C1OC(CO)C(O)C1O (stereo unspecified)
T/C (dose: 1.0 mg/kg/injection, schedule: Q01DX011 (ip), vehicle: saline): 63 % of control | T/C (dose: 1.6 mg/kg/injection, schedule: Q01DX011 (ip), vehicle: saline): 82 % of control | T/C (dose: 2.0 mg/kg/injection, schedule: Q01DX011 (ip), vehicle: saline): 112 % of control | T/C (dose: 3.2 mg/kg/injection, schedule: Q01DX011 (ip), vehicle: saline): 119 % of control | T/C (dose: 4.0 mg/kg/injection, schedule: Q01DX011 (ip), vehicle: saline): 50 % of control | T/C [1]: 75 % of control | T/C (dose: 6.3 mg/kg/injection, schedule: Q01DX011 (ip), vehicle: saline): 40 % of control | T/C (dose: 7.0 mg/kg/injection, schedule: Q01DX011 (ip), vehicle: saline): 16 % of control | T/C [2]: 38 % of control | T/C (dose: 12.5 mg/kg/injection, schedule: Q01DX011 (ip), vehicle: saline): 42 % of control | T/C (dose: 13.0 mg/kg/injection, schedule: Q01DX011 (ip), vehicle: saline): 2 % of control | T/C [3]: 8 % of control | T/C (dose: 25.0 mg/kg/injection, schedule: Q01DX011 (ip), vehicle: saline): 1 % of control and 19 % of control | T/C [4]: 1 % of control | T/C [5]: 18 % of control | T/C (dose: 80.0 mg/kg/injection, schedule: Q01DX011 (ip), vehicle: saline): 1 % of control | T/C (dose: 100.0 mg/kg/injection, schedule: Q01DX011 (ip), vehicle: saline): 11 % of control

O=[N+]([O-])c1cc([N+](=O)[O-])c(NN(c2ccccc2)c2ccccc2)c([N+](=O)[O-])c1
T/C (dose: 25.0 mg/kg/injection, schedule: Q01DX011 (ip), vehicle: other): 86 % of control

CC(=O)OC1CCC(C2CCCCC2)CC1 (stereo unspecified)
T/C (dose: 29.0 mg/kg/injection, schedule: Q01DX011 (ip), vehicle: saline): 157 % of control | T/C (dose: 57.0 mg/kg/injection, schedule: Q01DX011 (ip), vehicle: saline): 173 % of control | T/C (dose: 57.0 mg/kg/injection, schedule: Q01DX011 (oral), vehicle: saline): 86 % of control | T/C (dose: 113.0 mg/kg/injection, schedule: Q01DX011 (oral), vehicle: saline): 102 % of control | T/C (dose: 225.0 mg/kg/injection, schedule: Q01DX011 (oral), vehicle: saline): 84 % of control

CNC(C)=O
T/C (dose: 125.0 mg/kg/injection, schedule: Q01DX011 (ip), vehicle: carboxymethylcellulose (CMC)): 79 % of control and 86 % of control | T/C (dose: 250.0 mg/kg/injection, schedule: Q01DX011 (ip), vehicle: carboxymethylcellulose (CMC)): 104 % of control and 85 % of control | T/C (dose: 1000.0 mg/kg/injection, schedule: Q01DX011 (ip), vehicle: carboxymethylcellulose (CMC)): 60 % of control and 82 % of control
